In series [1] the target is Sigma non-opioid intracellular receptor 1 (Cavia porcellus, UniProt Q60492). Type of series: cell membranes, Brain, Membrane.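 Also: radioligand displacement of [3H]-(+)-pentazocine binding to sigma1 receptor in guinea pig brain membranes, read by scintillation counting after a 120 min incubation.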
Description: Displacement of [3H]-(+)-pentazocine from sigma1 receptor in guinea pig brain membrane measured after 120 mins by scintillation counting method
Series [2] concerns SH-SY5Y. The experiment in a line: Neuroprotective activity in H2O2 induced stress human SH-SY5Y cell model measured after 48 hrs by MTT assay. Type of series: functional, cell-based. In general terms: Tetrazolium dyes change colour on reduction, which living cells bring about.
Series [3] is described as follows: Selectivity index, ratio of Ki for displacement of [3H]DTG from sigma 2 receptor in rat liver membranes to Ki for displacement of [3H]-(+)-pentazocine from sigma1 receptor in guinea pig brain membrane. In kind it is cell membranes. On the technique in general: Loss of bound radioactivity is the signal in a displacement assay; it reports binding, not function.
Series [4] can be described thus: Cytotoxicity against HEK293 cells assessed as reduction in cell viability at 10 to 80 uM measured after 24 hrs by CTG- luminescence assay. In kind it is toxicity, cell-based. As to conditions: human.
Series [5] concerns the target T1, P2X purinoceptor 7 (Homo sapiens, UniProt Q99572).
T1 sequence (Q99572 whole entry): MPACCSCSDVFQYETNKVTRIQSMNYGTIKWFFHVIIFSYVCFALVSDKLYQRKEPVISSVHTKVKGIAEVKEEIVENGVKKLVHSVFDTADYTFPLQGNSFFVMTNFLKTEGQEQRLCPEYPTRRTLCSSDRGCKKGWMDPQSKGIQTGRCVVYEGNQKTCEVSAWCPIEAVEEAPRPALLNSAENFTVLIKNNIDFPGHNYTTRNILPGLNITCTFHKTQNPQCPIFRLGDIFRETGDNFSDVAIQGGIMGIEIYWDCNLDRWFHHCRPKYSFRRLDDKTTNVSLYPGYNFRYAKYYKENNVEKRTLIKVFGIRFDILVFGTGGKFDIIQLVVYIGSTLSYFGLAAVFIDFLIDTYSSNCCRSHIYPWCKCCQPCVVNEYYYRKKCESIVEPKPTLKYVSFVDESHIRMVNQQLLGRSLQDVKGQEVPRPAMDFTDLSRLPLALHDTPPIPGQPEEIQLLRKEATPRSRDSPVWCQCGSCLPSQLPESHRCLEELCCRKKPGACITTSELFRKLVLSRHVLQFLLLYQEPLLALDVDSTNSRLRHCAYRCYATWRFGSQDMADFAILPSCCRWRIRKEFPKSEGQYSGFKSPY
Kind of series: Antagonist activity at human P2X7 receptor expressed in HEK293 cells assessed as reduction in YO-PRO-1 iodide dye uptake preincubated for 30 mins followed by YO-PRO-1 iodide addition and measured after 120 mins by fluorescence plate reader analysis. In kind it is cell-based.

Series [6] has as its target T2, Sigma intracellular receptor 2 (Rattus norvegicus, UniProt Q5U3Y7).
T2 sequence (Q5U3Y7 whole entry): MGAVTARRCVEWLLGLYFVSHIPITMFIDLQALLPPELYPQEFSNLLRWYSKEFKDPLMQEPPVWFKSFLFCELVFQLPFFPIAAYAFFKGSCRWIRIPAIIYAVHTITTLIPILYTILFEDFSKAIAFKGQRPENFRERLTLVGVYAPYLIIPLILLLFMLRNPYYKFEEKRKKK
Kind of series: Displacement of [3H]DTG from sigma 2 receptor in rat liver membranes measured after 120 mins by scintillation counting method. Type of series: cell membranes, Membrane.

For series [7], the target named is Cholinesterase (Homo sapiens, UniProt P06276). The experiment in a line: Inhibition of human recombinant BuChe using butyrylthiocholine iodide as substrate incubated for 10 mins by DTNB reagent based Ellman's method. (DTNB colorimetry detects thiols as they appear.)
Cholinesterase, sequence (P06276 whole entry): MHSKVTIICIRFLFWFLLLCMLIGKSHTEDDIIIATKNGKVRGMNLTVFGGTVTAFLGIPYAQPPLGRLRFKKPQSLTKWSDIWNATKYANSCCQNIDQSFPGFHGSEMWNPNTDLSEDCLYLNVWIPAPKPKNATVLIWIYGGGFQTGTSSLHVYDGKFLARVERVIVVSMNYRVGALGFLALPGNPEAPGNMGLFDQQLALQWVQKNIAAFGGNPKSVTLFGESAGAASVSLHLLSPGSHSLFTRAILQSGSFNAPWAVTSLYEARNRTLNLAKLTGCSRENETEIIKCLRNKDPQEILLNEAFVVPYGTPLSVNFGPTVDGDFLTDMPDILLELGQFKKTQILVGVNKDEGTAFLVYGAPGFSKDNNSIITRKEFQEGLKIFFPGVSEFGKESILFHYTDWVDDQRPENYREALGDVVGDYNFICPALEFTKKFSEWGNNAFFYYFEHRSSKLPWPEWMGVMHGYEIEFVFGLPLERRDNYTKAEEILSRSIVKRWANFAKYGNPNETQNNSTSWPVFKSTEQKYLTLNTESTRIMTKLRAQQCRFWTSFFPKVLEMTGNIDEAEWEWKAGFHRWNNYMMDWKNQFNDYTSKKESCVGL
Series [8] is described as follows: Permeability of the compound across blood brain barrier at pH 7.4 incubated for 16 hrs by PAMPA assay. In kind it is ADME. To be noted: read-out: permeability.
Series [9] in a line: Permeability of the compound at pH 6.8 by HDM-PAMPA assay. In kind it is ADME. To be noted: read-out: permeability.
The target in series [10] is Glutamate receptor ionotropic, NMDA 2B (Homo sapiens, UniProt Q13224). Kind of series: Displacement of [3H]ifenprodil from recombinant human GluN2B NMDA receptor (unknown origin) expressed in dexamethasone-induced mouse L-M(TK-) cell after 120 mins by microbeta scintillation counting method. In kind it is cell-based.
Glutamate receptor ionotropic, NMDA 2B, sequence (Q13224 whole entry): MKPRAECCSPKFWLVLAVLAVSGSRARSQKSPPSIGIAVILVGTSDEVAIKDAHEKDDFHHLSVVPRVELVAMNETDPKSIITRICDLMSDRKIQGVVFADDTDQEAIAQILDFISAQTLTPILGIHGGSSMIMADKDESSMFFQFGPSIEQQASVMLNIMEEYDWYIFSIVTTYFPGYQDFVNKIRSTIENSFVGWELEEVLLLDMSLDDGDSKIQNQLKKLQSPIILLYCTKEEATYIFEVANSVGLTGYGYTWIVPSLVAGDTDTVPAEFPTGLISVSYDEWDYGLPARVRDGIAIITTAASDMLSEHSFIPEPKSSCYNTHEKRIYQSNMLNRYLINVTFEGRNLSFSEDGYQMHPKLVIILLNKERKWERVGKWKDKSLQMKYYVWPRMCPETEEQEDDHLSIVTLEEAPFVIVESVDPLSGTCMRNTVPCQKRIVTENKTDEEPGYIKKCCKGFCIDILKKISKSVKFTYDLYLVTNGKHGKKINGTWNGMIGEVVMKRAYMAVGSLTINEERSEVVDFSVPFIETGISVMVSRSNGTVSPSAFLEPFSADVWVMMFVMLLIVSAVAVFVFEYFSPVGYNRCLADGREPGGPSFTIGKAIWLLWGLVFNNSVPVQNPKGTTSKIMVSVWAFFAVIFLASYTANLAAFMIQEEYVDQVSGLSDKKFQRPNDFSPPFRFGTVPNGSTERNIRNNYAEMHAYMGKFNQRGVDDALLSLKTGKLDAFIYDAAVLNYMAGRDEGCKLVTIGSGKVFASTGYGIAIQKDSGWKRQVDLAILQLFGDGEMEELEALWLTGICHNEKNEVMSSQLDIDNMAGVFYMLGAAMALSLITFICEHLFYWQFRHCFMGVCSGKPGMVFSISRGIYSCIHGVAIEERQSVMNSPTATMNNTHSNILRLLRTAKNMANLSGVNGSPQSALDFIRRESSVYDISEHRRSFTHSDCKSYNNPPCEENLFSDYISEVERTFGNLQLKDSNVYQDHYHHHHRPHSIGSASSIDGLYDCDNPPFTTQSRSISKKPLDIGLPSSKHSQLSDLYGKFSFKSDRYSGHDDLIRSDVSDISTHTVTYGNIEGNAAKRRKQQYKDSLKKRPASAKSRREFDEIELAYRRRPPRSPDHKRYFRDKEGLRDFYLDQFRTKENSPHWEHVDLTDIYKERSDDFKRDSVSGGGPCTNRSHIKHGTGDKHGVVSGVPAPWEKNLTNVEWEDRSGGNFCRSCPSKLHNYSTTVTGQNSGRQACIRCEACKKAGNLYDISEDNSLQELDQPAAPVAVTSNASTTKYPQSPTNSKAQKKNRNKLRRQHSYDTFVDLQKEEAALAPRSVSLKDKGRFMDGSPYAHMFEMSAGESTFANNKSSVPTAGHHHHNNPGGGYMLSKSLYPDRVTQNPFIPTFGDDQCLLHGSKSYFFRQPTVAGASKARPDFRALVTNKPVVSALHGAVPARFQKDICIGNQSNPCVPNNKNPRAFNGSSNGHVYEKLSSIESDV
The species named for series [11] is Danio rerio. The experiment in a line: Anti-neuroinflammatory activity in Abeta42 induced zebrafish AD model assessed as reduction in number of activated microglia relative to control. In kind it is functional. The arrangement: scale not given: the % may be the effect or the level left.
Series [12] deals with SH-SY5Y. The experiment in a line: Neuroprotective activity in Abeta42 induced stress human SH-SY5Y cell model measured after 72 hrs by CTG luminescence assay. In kind it is functional, cell-based.
Series [13] is filed under the species Danio rerio. Kind of series: Neuroprotective activity against Abeta42 induced zebrafish AD model assessed as reversal of reduction in synaptic integrity at 10 uM measured after 5 days. As to conditions: time 5.0 day. In kind it is functional, organism-based.
Series [14] concerns the target Acetylcholinesterase (Homo sapiens, UniProt P22303). The experiment in a line: Inhibition of human recombinant AChe using acetylthiocholine iodide as substrate incubated for 10 mins by DTNB reagent based Ellman's method.
Series [15] can be described thus: Selectivity index, ratio of Ki for displacement of [3H]-(+)-pentazocine from sigma1 receptor in guinea pig brain membrane to Ki for displacement of [3H]DTG from sigma 2 receptor in rat liver membranes. Type of series: cell membranes.
In series [16] the target is Cytochrome P450 2C9 (Homo sapiens, UniProt P11712). The experiment in a line: Inhibition of CYP2C9 (unknown origin) preincubated for 10 mins followed by NADP addition measured after 50 mins. In kind it is ADME.
Cytochrome P450 2C9, sequence (P11712 whole entry): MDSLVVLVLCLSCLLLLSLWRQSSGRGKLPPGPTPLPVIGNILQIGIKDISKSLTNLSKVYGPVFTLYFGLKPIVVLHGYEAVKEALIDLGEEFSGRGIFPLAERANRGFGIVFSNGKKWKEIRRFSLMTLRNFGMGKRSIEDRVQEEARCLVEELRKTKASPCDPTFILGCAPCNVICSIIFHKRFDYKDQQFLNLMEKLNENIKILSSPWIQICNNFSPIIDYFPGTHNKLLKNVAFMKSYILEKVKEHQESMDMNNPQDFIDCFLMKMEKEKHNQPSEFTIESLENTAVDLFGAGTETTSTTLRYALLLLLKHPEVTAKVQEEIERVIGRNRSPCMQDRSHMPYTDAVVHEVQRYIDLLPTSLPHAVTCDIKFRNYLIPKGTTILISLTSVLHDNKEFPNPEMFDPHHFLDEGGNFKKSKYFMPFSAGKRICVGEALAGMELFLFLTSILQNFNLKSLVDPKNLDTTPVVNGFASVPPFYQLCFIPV
In series [17] the target is Cytochrome P450 3A4 (Homo sapiens, UniProt P08684). The experiment in a line: Inhibition of CYP3A4 (unknown origin) preincubated for 10 mins followed by NADP addition measured after 50 mins. In kind it is ADME.
Cytochrome P450 3A4, sequence (P08684 whole entry): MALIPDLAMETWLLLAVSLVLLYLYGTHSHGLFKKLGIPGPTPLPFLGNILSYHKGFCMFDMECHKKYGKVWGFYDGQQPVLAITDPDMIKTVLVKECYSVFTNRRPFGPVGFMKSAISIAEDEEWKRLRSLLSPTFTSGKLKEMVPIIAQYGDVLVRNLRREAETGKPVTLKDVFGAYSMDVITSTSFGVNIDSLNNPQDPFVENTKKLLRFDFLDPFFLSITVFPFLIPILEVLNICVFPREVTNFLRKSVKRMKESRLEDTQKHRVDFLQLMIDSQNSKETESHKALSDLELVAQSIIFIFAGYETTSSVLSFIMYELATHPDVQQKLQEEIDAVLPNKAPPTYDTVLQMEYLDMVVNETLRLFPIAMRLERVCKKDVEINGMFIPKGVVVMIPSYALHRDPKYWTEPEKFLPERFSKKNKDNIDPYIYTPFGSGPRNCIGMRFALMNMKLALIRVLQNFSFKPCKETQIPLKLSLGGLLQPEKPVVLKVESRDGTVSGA
Series [18] addresses Cytochrome P450 2D6 (Homo sapiens, UniProt P10635). The experiment in a line: Inhibition of CYP2D6 (unknown origin) preincubated for 10 mins followed by NADP addition measured after 50 mins. In kind it is ADME.

Structures are written as SMILES. The source made the active and inactive calls. The rule behind the calls is not given here.

The record followed here is ChEMBL document CHEMBL5113531, “Discovery of Potent Cholinesterase Inhibition-Based Multi-Target-Directed Lead Compounds for Synaptoprotection in Alzheimer's Disease” (J Med Chem, 2022).

Sigma non-opioid intracellular receptor 1, sequence (Q60492 whole entry): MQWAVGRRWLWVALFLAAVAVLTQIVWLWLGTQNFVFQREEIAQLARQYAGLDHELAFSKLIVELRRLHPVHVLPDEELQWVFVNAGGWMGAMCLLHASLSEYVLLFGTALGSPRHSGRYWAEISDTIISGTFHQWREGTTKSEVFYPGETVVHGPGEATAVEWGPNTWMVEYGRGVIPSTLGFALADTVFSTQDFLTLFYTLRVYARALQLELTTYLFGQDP
Acetylcholinesterase, sequence (P22303 whole entry): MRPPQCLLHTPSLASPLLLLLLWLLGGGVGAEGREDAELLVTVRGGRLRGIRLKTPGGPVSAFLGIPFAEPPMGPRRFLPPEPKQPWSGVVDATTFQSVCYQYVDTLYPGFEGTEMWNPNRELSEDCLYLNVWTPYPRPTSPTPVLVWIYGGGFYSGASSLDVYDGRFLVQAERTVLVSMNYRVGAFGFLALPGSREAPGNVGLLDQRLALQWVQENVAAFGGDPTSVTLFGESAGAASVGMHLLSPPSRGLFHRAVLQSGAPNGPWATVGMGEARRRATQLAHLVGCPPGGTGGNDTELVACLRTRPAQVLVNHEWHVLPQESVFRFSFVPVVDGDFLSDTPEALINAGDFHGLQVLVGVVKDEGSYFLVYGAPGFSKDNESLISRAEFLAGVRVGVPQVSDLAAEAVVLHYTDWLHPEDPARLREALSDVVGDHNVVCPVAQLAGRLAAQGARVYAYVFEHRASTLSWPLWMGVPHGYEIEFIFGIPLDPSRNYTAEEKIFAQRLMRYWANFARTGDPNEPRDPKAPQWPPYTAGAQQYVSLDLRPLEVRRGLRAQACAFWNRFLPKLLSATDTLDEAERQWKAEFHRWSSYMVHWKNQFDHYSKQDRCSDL
Cytochrome P450 2D6, sequence (P10635 whole entry): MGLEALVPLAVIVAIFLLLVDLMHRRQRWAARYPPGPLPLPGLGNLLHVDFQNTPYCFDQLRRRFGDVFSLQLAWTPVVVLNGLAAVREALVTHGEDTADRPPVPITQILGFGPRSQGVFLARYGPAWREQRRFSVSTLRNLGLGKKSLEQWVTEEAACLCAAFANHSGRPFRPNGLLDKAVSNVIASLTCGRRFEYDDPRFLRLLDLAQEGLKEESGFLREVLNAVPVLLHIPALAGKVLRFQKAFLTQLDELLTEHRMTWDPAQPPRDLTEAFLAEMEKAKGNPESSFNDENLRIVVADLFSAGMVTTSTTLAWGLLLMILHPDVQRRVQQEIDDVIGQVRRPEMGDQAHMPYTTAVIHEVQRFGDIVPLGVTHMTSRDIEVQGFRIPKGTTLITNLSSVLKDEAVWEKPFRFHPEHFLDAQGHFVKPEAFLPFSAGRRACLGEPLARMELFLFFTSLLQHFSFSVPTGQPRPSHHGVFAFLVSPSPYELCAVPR

One may read the Ki as the equilibrium dissociation constant of an inhibitor or competing ligand from its target. Usually IC50 stands for the midpoint of a concentration-inhibition curve. Turning to `Cc1cccc2sc(NC(=O)CCN3CCN(CCCN(C)C)CC3)nc12`, the Ki in series [1] is 570 nM; in [6], > 1000 nM; in series [10], 1800 nM. Besides, the outcome in series [2], in series [12] and in series [13] was Active. Moreover, in series [3], the Ratio Ki was > 1.75. For the same compound, in series [4], the IC50 at 24 h amounted to 20500 nM. Moreover, the IC50 in series [5] is 18100 nM; in series [7] it was > 40000 nM; in [14] it was 410 nM. In series [8], the Papp at 16 h amounted to 4 ×10⁻⁶ cm/s. The Papp in series [9] came to 4.5 ×10⁻⁶ cm/s. For the same compound, the Activity in [11] turned out to be 33.1%.
In the case of `Cc1cccc2sc(NC(=O)CCN3CCN(c4ccncc4)CC3)nc12`, the Ratio Ki in [15] came out at 5.65. Moreover, the IC50 is 2460 nM in series [16]; 1130 nM in [5]; > 40000 nM in series [7]; 1140 nM in series [17]; 13600 nM in series [18]; 18200 nM in series [14]. Further, the results for the Ki in series [1], in series [6] and in series [10] were 9600 nM, 1700 nM and 184 nM, respectively. Further, the outcome in series [2], in series [12] and in [13] was Active. Moreover, in series [11], the Activity turned out to be 25.9%.
